The text below walks through data of patent US12595232B2, “DRG-MDM2-1 for use as a novel Mouse Double Minute 2 (MDM2) inhibitor” (BAHCESEHIR UNIVERSITESI, priority 2020, dated 2026).

In experiment [1] the test system is HCT 116 colon cancer and MDA-MB231 breast cancer cell lines. Nature of the experiment: MTT cell proliferation assay (time course). It counts as cell-based. Particulars: for cytotoxicity at 100 µM: read-out: cell viability decrease. The method, then: (§1) HCT 116 colon cancer and MDA-MB231 breast cancer cell lines are used in cell culture experiments.
(§2) Cells were treated with high-glucose DMEM medium (Biosera) supplemented with 10% FBS (Gibco) and 1× penicillin/streptomycin (Multicell). The assay was designed to contain 10,000 cells for each well of 24-well cell culture plates before being treated with inhibitors.
(§3) Compound of formula I was dissolved with DMSO as 20 mM stock. 24 hours later, the solution was diluted in DMEM with 10% FBS and final concentration of vehicle DMSO was 0.5% at maximum. Therefore, the vehicle group included 0.5% DMSO concentration in experiments. Intensive cultivation of cells causes a decrease in proliferation capacity.
For proliferation inhibition analysis, cells were seeded in 24 well plates at 1×10^4 cells/well cells overnight without drug treatment. During the cell proliferation experiments, we performed five days of treatment in each cell line and repeated the experiments three times to check each experiment. No significant difference in cell viability was observed after the third day. Therefore, cells with different drug concentrations were treated for two days. After 48 hours, MTT was applied to the cells and incubated at 37° C. for 4 hours, formazan was solubilized with DMSO (Sigma-Aldrich, St. Louis, USA) and absorbance was measured at 570 nm.
Molecule concentration was 100 μM, the lower concentrations were not shown. Vehicle represents the groups treated with only %0.5 DMSO and Untreated represents no molecule treated group. Molecule responses were evaluated by cell viability which is obtained by spectrophotometric analysis of cells upon MTT treatment at 12 h, 24 h, 48 h and 72 h. […] Statistical significance in graphs was determined by comparing each treatment group with DMSO control using ANOVA testing and significance is considered as p<0.001 (FIG. 2).
A general note: Tetrazolium assays rely on reduction of a dye to a coloured formazan, in cell work by metabolically active cells.

The next experiment concerns HCT-116 cells. Nature of the experiment: Microscopic evaluation of cells (proliferation, apoptotic morphology). Particulars: FIG. 3. It counts as cell-based. The protocol: Cells were photographed and observed under microscope for three days.
As a result, cell viability decreased by 40% at the end of the first day and reached 60% at the end of the third day. Any cell proliferation change and apoptotic cell morphology were not observed in the untreated and vehicle groups. Moreover, differences in cell morphology were also observed. […] Upon treatment with the compound of formula I according to present invention with 100 μM concentration, cells having the morphology of apoptotic cells were observed starting from the 3rd hour.

Another experiment has as its system MDA-MB231 cell lines. Put plainly: MTT cell viability assay (IC50). It is filed as cell-based. Particulars: Homo sapiens, MDA-MB-231, single dose of treatment, 10^−9 to 10^−4 M, 570 nm absorbance, FIG. 1, read-out: IC50 (half-maximal inhibitory concentration), MTT cell viability. The method, then: as §1, §2, §3
The MTT cell viability assay was used to detect values of half-maximal inhibitory concentration (IC50). Different concentrations of compound of formula I ranging between 10^−9 to 10^−4 M were tested on MDA-MB231 cell lines with single dose of treatment. 570 nm absorbance values were recorded and IC50 values were calculated by dose response—inhibition curves and nonlinear regression analysis on Graphpad Prism 8 software.

Another experiment addresses MDM2 protein (Homo sapiens, UniProt Q00987). Particulars: versus a natural p53 peptide; cited from earlier work.

pIC50: −log10 of the molar value. Read-outs that look alike come from different tables or passages of the source.

Sequence of MDM2 protein (Q00987 whole entry, species assumed): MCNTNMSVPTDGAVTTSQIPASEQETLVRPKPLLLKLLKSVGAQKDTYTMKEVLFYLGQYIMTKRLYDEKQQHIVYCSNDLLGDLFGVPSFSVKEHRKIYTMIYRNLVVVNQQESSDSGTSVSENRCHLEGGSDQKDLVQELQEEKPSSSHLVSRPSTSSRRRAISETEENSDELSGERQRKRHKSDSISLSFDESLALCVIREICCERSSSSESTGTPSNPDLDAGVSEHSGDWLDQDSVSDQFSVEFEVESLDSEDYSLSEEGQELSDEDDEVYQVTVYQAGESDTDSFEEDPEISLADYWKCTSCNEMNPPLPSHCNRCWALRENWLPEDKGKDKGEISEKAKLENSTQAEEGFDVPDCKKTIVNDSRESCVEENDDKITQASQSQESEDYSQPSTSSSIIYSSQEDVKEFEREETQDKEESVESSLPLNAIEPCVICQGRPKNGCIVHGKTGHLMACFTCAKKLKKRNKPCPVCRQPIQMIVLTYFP

In the case of `O=C(O)CC(NC(=O)Cc1c[nH]c2ccccc12)c1ccc(F)cc1` (centres unmarked) [compound of formula I], the “cell viability compared to vehicle and untreated groups” value in experiment [1] (100 μM, MTT at 12 h, 24 h, 48 h and 72 h, ANOVA, p<0.001, FIG. 2) is “statistically significant difference”. In addition, the cytotoxicity at 100 µM in experiment [1] (end of the first day) amounted to 40%; in experiment [1] (end of the third day), 60%. In addition, the “time from which cells having the morphology of apoptotic cells were observed” value with HCT-116 cells (100 μM concentration) is reported as 3 hour. Besides, in the experiment with HCT-116 cells (HCT-116), the “apoptotic activity under microscope” value is given as “clear apoptotic activity from the twelfth hour”. In the experiment with HCT-116 cells (HCT-116, observed for three days, versus vehicle and untreated), the proliferation under microscope result is on record as “reduced proliferation”. The pIC50 in the experiment with MDA-MB231 cell lines was 4.11.

Turning to MI-319, on MDM2 protein, the “binding affinity to MDM2 relative to natural p53 peptide” value is recorded as 500 fold.
